The record followed here is US20050112260A1, “Monatin tabletop sweetener compositions and methods of making same” (Cargill, Inc., priority 2003, published 2005).

Data set [1] is described as follows: Sweetness relative to sucrose, panel of trained sensory evaluators, dose response curve. It is filed as in vivo. Conditions: slope of dose response curve at 8% sucrose equivalence value (SEV). As to the method:
One assesses sweetness of a sweetener relative to sucrose by using a panel of trained sensory evaluators experienced in the sweetness estimation procedure. All samples (in same buffers) are served in duplicate at a temperature of 22° C.±1° C. Test solutions, coded with 3 digit random number codes, are presented individually to panelists, in random order. Sucrose reference standards, ranging from 4.0-10.0% (w/v) sucrose, increasing in steps of 0.5% (w/v) sucrose are also provided. Panelists are asked to estimate sweetness by comparing the sweetness of the test solution to the sucrose standards. […] Using information obtained from the panelists, the sweetness intensity or potency is calculated by dividing sucrose equivalent value (SEV) (e.g., % sucrose) by the % monatin at a particular point in a dose response curve.
The S,S stereoisomer of monatin is approximately 50-200 times sweeter than sucrose by weight. […] As discussed above, the sweetness of the monatin is calculated using experienced sensory evaluators in a sweetness comparison procedure, where a test sweetener solution is matched for sweetness intensity against one of a series of reference solutions. […] The intensity sweetness is calculated as the slope in a dose response curve, where the % sucrose is divided by the % monatin. […]

Data set [2] is described as follows: Sensory evaluation of table-top sweeteners in coffee and iced tea (panel n=6). It is filed as in vivo. To be noted: 200 ml serving. As to the method: Monatin table-top formulations, including R,R monatin or R,R monatin/erythritol combinations, were assessed relative to other known sweeteners (aspartame and sucralose) in coffee and iced tea. The key sensory parameters assessed included sweetness quality, aftertaste, bitter taste and its aftertaste. Qualitative evaluation has been carried out.
Standard coffee was used in which to evaluate sweetener performance (Table 7).
Sweeteners were added to coffee at the following concentrations: • Aspartame 0.025% (w/v) • Sucralose 0.0082% (w/v) • R,R monatin* 0.0020, 0.0025, 0.0030% (w/v) plus 1 g maltodextrin • R,R monatin/erythritol 0.0020, 0.0025, 0.0030% (w/v) plus 1 g erythritol (ii) Iced Tea
An ice tea formulation was developed to evaluate sweetener performance (Table 8).
Sweeteners were added to tea at the following concentrations:
The evaluation of these coffee and tea drinks was carried out by a small (n=6) panel of experienced sensory evaluators who evaluated the coffee products on one tasting occasion and the tea products on a subsequent occasion.

Data set [3] can be described thus: Sensory stability of monatin and aspartame at pH 2.5, 3.0, 4.0 at 40° C. (sweetness vs sucrose standards, panel n=8). The class given is physicochemical. Conditions: for Rate constant (k; day^−1) of sweetness loss: pseudo-first order assumed. The protocol: The sensory stability of monatin solutions prepared at pH 2.5, 3.0 and 4.0 and stored at 40° C. was monitored for 100 days. Loss of sweetness from these solutions was compared with the losses of sweetness from aspartame solutions prepared and stored under identical conditions.
The sensory stability of monatin (8% SEV, ˜55 ppm, synthetic blend containing approximately 96% of the 2R,4R/2S, 4S enantiometric pair and 4% of the 2R,4S/2S,4R enantiometric pair) in phosphate/citrate buffers having a pH of 2.5, 3.0, and 4.0 was examined after storage at 40° C. The stability of monatin was compared to that of aspartame (400 ppm) in the same buffers. Three sucrose reference solutions were prepared in the same phosphate/citrate buffers as the monatin and aspartame solutions. All prepared solutions were stored in the dark.
• pH2.5 Phosphoric acid (75% solution) 0.127% (w/v) • Tri-sodium citrate monohydrate 0.005% (w/v) • pH3.0 Phosphoric acid (75% solution) 0.092% (w/v) • Tri-sodium citrate monohydrate 0.031% (w/v) • pH4.0 Phosphoric acid (75% solution) 0.071% (w/v) • Tri-sodium citrate monohydrate 0.047% (w/v)
The sweetness of each sweetener relative to sucrose was assessed in duplicate by a small panel (n=8) of trained sensory evaluators experienced in the sweetness estimation procedure. All samples (in the same buffers) were served in duplicate at a temperature of 22° C.±1° C. Monatin (test) solutions, coded with 3 digit random number codes were presented individually to panelists, in random order. Sucrose reference standards, ranging from 4.0-10.0% (w/v) sucrose, increasing in steps of 0.5% (w/v) sucrose were also provided. Panelists were asked to estimate sweetness by comparing the sweetness of the test solution to the sucrose standards. This was carried out by taking 3 sips of the test solution, followed by a sip of water, followed by 3 sips of sucrose standard followed by a sip of water, etc. Panelists were encouraged to estimate the sweetness to one decimal place, e.g., 6.8, 8.5. A five minute rest period was imposed between evaluating the test solutions. Panelists were also asked to rinse well and eat a cracker to reduce any potential carry over effects.
If a pseudo-first order breakdown reaction is assumed, a plot of logn percentage retention versus time (logn% RTN v. t) allows estimation of the half-life (t½) and rate constant (k) of sweetness loss under any given set of conditions. In so doing, the kinetics of monatin and aspartame sweetness loss may be summarized as follows in Table 13.

Where [4] appears, read: pH 2.5, 40° C., day 1, aspartame 400 ppm.
The mark [5] stands for this setting: pH 2.5, 40° C., day 2, aspartame 400 ppm.
Setting [6] is: pH 2.5, 40° C., day 3, aspartame 400 ppm.
[7] abbreviates: pH 2.5, 40° C., day 4, aspartame 400 ppm.
[8] abbreviates: pH 2.5, 40° C., day 7, aspartame 400 ppm.
Where [9] appears, read: pH 2.5, 40° C., day 8, aspartame 400 ppm.
Where [10] appears, read: pH 2.5, 40° C., day 9, aspartame 400 ppm.
Setting [11] is: pH 2.5, 40° C., day 11, aspartame 400 ppm.
Setting [12] is: pH 2.5, 40° C., day 50, aspartame 400 ppm.
[13] abbreviates: pH 2.5, 40° C., day 100, aspartame 400 ppm.
[14] abbreviates: pH 3.0, 40° C., day 1, aspartame 400 ppm.
[15] abbreviates: pH 3.0, 40° C., day 2, aspartame 400 ppm.
Where [16] appears, read: pH 3.0, 40° C., day 3, aspartame 400 ppm.
The mark [17] stands for this setting: pH 3.0, 40° C., day 4, aspartame 400 ppm.
Where [18] appears, read: pH 3.0, 40° C., day 7, aspartame 400 ppm.
[19] abbreviates: pH 3.0, 40° C., day 8, aspartame 400 ppm.
[20] abbreviates: pH 3.0, 40° C., day 9, aspartame 400 ppm.
Where [21] appears, read: pH 3.0, 40° C., day 11, aspartame 400 ppm.
The mark [22] stands for this setting: pH 3.0, 40° C., day 50, aspartame 400 ppm.
Setting [23] is: pH 3.0, 40° C., day 100, aspartame 400 ppm.
Where [24] appears, read: pH 4.0, 40° C., day 3, aspartame 400 ppm.
Where [25] appears, read: pH 4.0, 40° C., day 8, aspartame 400 ppm.
The mark [26] stands for this setting: pH 4.0, 40° C., day 11, aspartame 400 ppm.
Setting [27] is: pH 4.0, 40° C., day 17, aspartame 400 ppm.
[28] abbreviates: pH 4.0, 40° C., day 24, aspartame 400 ppm.
[29] abbreviates: pH 4.0, 40° C., day 50, aspartame 400 ppm.
[30] abbreviates: pH 4.0, 40° C., day 100, aspartame 400 ppm.

Residues, ends and D or L forms follow the SMILES beside them.

As for `N[C@H](C[C@](O)(Cc1c[nH]c2ccccc12)C(=O)O)C(=O)O` [R,R monatin], in data set [1], the “sweetness compared to sucrose by weight” value is 2000-2400 times sweeter than sucrose by weight.

With `COC(=O)[C@H](Cc1ccccc1)NC(=O)[C@@H](N)CC(=O)O` [Aspartame, reference compound] (H-Asp-Phe-OMe), in data set [2] (Coffee, Aspartame 250 ppm), the “Comments (sensory evaluation)” value is recorded as “Balanced sweetness profile. Very low level”. In addition, the “SEV Aspartame (% sucrose)” value in data set [3] (pH 2.5, 40° C., day 0, aspartame 400 ppm) was 7.34 % sucrose; in data set [3] (setting [4]), 6.90 % sucrose; in data set [3] (setting [5]), 6.80 % sucrose; in data set [3] (setting [6]) it was 6.60 % sucrose; in data set [3] (setting [7]), 6.29 % sucrose; in data set [3] (setting [8]), 6.01 % sucrose. Besides, the “SEV Aspartame (% sucrose)” value in data set [3] (setting [9]) worked out at 5.98 % sucrose; in data set [3] (setting [10]), 5.97 % sucrose; in data set [3] (setting [11]), 5.86 % sucrose; in data set [3] (setting [12]), 4.19 % sucrose; in data set [3] (setting [13]) it was 0.80 % sucrose; in data set [3] (pH 3.0, 40° C., day 0, aspartame 400 ppm), 7.15 % sucrose. The “SEV Aspartame (% sucrose)” value came to 6.90 % sucrose in data set [3] (setting [14]); 6.87 % sucrose in data set [3] (setting [15]); 6.60 % sucrose in data set [3] (setting [16]); 6.43 % sucrose in data set [3] (setting [17]); 6.17 % sucrose in data set [3] (setting [18]); 5.93 % sucrose in data set [3] (setting [19]). The “SEV Aspartame (% sucrose)” value in data set [3] (setting [20]) was 5.94 % sucrose; in data set [3] (setting [21]) it was 5.83 % sucrose; in data set [3] (setting [22]), 4.71 % sucrose; in data set [3] (setting [23]), 2.20 % sucrose; in data set [3] (pH 4.0, 40° C., day 0, aspartame 400 ppm) it was 7.10 % sucrose; in data set [3] (setting [24]), 6.75 % sucrose. Besides, the “SEV Aspartame (% sucrose)” value in data set [3] (setting [25]) was 6.23 % sucrose; in data set [3] (setting [26]), 6.02 % sucrose; in data set [3] (setting [27]), 5.75 % sucrose; in data set [3] (setting [28]), 5.85 % sucrose; in data set [3] (setting [29]), 5.29 % sucrose; in data set [3] (setting [30]), 4.10 % sucrose. The “Retention of Aspartame Sweetness (%)” value amounted to 94.0% in data set [3] (setting [4]); 92.6% in data set [3] (setting [5]); 89.9% in data set [3] (setting [6]); 85.7% in data set [3] (setting [7]); 81.9% in data set [3] (setting [8]); 81.5% in data set [3] (setting [9]). The “Retention of Aspartame Sweetness (%)” value in data set [3] (setting [10]) was found to be 81.3%; in data set [3] (setting [11]), 79.8%; in data set [3] (setting [12]), 57.1%; in data set [3] (setting [13]), 10.9%; in data set [3] (setting [14]), 96.5%; in data set [3] (setting [15]) it was 96.1%. Further, the “Retention of Aspartame Sweetness (%)” value in data set [3] (setting [16]) stood at 92.3%; in data set [3] (setting [17]) it was 89.9%; in data set [3] (setting [18]) it was 86.3%; in data set [3] (setting [19]), 82.9%; in data set [3] (setting [20]) it was 83.1%; in data set [3] (setting [21]), 81.5%. The “Retention of Aspartame Sweetness (%)” value stood at 65.9% in data set [3] (setting [22]); 30.8% in data set [3] (setting [23]); 95.1% in data set [3] (setting [24]); 87.8% in data set [3] (setting [25]); 84.8% in data set [3] (setting [26]); 81.0% in data set [3] (setting [27]). In addition, the “Retention of Aspartame Sweetness (%)” value in data set [3] (setting [28]) is 82.4%; in data set [3] (setting [29]), 74.5%; in data set [3] (setting [30]) it was 57.7%. The “Rate constant (k; day^−1) of sweetness loss” value in data set [3] (pH 2.5, 40° C.) turned out to be 0.013 day⁻¹; in data set [3] (pH 3.0, 40° C.) it was 0.009 day⁻¹; in data set [3] (pH 4.0, 40° C.) it was 0.005 day⁻¹. Further, the “Sweetness Retained (%)” value in data set [3] (pH 2.5, 100 days storage at 40° C.) is 11%; in data set [3] (pH 3.0, 100 days storage at 40° C.), 31%; in data set [3] (pH 4.0, 100 days storage at 40° C.) it was 58%.

`NC(CC(O)(Cc1c[nH]c2ccccc12)C(=O)O)C(=O)O` (centres unmarked) [S,S monatin]: the “sweetness compared to sucrose by weight” value in data set [1] is 50-200 times sweeter than sucrose by weight.

Take `OC[C@H]1O[C@H](O[C@]2(CCl)O[C@H](CCl)[C@@H](O)[C@@H]2O)[C@H](O)[C@@H](O)[C@H]1Cl` [Sucralose]: the “Comments (sensory evaluation)” value in data set [2] (Coffee, Sucralose 82 ppm) was “Slow sweetness onset allows stronger”; in data set [2] (Iced Tea, Sucralose 170 ppm), “Delay in sweetness onset means first”.
